Measured values from PMC13197777, “Distinct 2-phenylimidazo[1,2-a]pyridine derivatives that inhibit breast cancer cell proliferation identified as AHR ligands” (iScience, 2026).
Read-outs that look alike come from different tables or passages of the source.

Key:
ERα in MCF-7 cells = assay: Immunoblot of ERα in MCF-7 cells; type: cell-based, human; details: MCF-7, 48 h, increasing concentrations up to 1 μM
Procedure: To determine the relative expression of proteins by Western blotting, cells were first washed with ice-cold phosphate buffered saline (PBS). Subsequently, they were lysed in ice-cold NP40 lysis buffer (1%NP-40, 50 mM Tris-HCl, pH 8.0, 150 mM NaCl, 5 mM Ethylenediaminetetraacetic acid [EDTA], 1 mM PMSF) on ice. DNA was degraded by sonification (five pulses at 50 amplitudes). Protein concentration was determined, and equal amounts of protein were separated on a 9% SDS-PAGE gel. The proteins were transferred onto nitrocellulose membrane by a standard Western blotting protocol and the membranes were incubated with the following antibodies: ERα (Santa Cruz Biotechnology, sc-8002, RRID: AB_627558) and PCNA (Santa Cruz Biotechnology, sc-56, RRID: AB_628110), followed by incubation with HRP labeled Goat anti-mouse Immunoglobulins (DAKO, P0447, RRID: AB_2617137).

AHR = target: T1, AHR (Homo sapiens, UniProt P35869); assay: AHR luciferase reporter assay in HAHLH cells; type: cell-based; details: 8 h; for EC50: % of maximal luciferase activity with dioxin 10 nM, read-out: EC50 AHR transactivation
T1 construct: endogenous in cells; host or cells: HAHLH (HeLa with XRE-luciferase reporter)
T1 sequence (P35869 11-848): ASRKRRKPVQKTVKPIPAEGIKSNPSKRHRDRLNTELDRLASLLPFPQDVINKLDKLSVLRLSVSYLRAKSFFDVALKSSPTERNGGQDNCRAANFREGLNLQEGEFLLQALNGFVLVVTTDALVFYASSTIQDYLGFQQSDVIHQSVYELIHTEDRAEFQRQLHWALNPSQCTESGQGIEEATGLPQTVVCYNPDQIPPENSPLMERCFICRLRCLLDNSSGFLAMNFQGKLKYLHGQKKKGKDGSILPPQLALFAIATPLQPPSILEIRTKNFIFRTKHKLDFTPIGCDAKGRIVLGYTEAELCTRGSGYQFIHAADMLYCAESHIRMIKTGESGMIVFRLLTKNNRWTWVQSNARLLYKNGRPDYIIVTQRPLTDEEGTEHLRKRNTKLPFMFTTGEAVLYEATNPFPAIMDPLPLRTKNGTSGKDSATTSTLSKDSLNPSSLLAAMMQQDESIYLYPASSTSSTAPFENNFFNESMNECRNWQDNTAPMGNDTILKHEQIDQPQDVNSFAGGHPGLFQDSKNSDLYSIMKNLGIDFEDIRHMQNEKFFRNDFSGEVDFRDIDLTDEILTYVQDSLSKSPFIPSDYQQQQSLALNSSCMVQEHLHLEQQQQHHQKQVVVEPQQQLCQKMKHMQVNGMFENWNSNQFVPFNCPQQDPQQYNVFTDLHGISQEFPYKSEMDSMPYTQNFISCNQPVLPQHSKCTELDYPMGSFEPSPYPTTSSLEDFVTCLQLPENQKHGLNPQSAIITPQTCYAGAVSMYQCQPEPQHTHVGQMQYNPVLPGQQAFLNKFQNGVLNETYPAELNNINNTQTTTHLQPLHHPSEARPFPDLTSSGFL
Description: To characterize the chemical induced AHR activity, we used the already established HAHLH reporter cell lines obtained by stably expression of HeLa cells with the dioxin-responsive gene XRE(TnGCGTG)3-tata-luciferase-Luc-hygromycin plasmid.[29] The reporter HELN hERα cell line was obtained by transfecting human HeLa cells with the ERE-responsive gene ERE-βGlobin-luciferase-Luc-neomycin and the pSG5-hERα-puromycin plasmids as previously described.[59] To determine the action of the chemical on AHR and hERα activity, cells were seeded at a density of 50,000 cells per well in 96-well white opaque tissue culture plates (Greiner CellStar) in 150 μL of Dulbecco’s Modified Eagle Medium: Nutrient Mixture F-12 (DMEM/F- 12) without phenol red and 1 g/L glucose and supplemented with 5% stripped fetal bovine serum, 100 units/mL of penicillin, 100 μg/mL of streptomycin (test medium). Twenty-four hours later, chemicals to be tested were added at 4x concentration in culture medium, and cells were incubated at 37 °C for 8 h (HAhLH cells) or 24 h (HELN hERα cells). At the end of the incubation period, culture medium was replaced with test medium containing 0.3 mM luciferin and luciferase activity was measured for 2 s in intact living cells using a MicroBeta Wallac luminometer (PerkinElmer). Tests were performed in quadruplicate at 4x concentration in the same medium in at least 4 independent experiments. Results were expressed as % of the maximal luciferase activity. […] Effective concentration (ECs) for a given compound, EC50 is defined as the concentration inducing 50% of its maximal effect. The EC50 values were calculated including the adjustment for the basal activity of the cell line.

MCF-7 luc D538G = assay: Clonogenic assay (clonal expansion), MCF-7 cells with D538G ER mutation; type: cell-based; details: Homo sapiens, MCF7, 336 h
Procedure: Cells were seeded at a density of 1–2×10^3 cells/well in a 6-well plate and treated with increasing concentrations of the X compounds for 14–21 days. Medium and compounds were renewed every 7 days. The experiments were terminated by fixing the cells with methanol and the colonies formed were visualized after staining with 0.5% crystal violet (w/v) in 20% methanol (v/v). Plates were photographed and the area covered by the colonies was calculated using the ColonyArea Plugin for Fiji (RRID:SCR_003070).[20]

ERα full-length = target: T2, ERα full-length (Homo sapiens, UniProt P03372); assay: PolarScreen ERα Competitor Assay (fluorescence polarization); type: binding
T2 construct: 34 nM ERα full-length and 1.4 nM Fluormone EL Red were incubated; purchased ThermoFisher A15884
T2 sequence (P03372 1-595): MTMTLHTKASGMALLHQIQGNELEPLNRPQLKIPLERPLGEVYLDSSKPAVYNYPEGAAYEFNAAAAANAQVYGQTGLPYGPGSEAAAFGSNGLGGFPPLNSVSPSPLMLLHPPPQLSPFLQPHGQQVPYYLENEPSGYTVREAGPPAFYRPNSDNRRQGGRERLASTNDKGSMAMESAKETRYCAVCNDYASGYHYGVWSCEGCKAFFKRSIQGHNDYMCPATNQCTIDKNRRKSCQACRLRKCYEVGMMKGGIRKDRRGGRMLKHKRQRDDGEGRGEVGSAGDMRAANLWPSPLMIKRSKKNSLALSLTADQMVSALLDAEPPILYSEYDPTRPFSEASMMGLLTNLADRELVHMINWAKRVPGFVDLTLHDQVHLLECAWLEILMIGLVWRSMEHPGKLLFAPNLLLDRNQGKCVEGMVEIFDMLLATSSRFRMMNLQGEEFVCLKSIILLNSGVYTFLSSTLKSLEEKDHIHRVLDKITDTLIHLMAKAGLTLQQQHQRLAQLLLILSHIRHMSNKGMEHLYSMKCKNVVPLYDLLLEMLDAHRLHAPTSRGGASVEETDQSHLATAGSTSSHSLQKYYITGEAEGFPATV
Procedure: The PolarScreen Estrogen Receptor-Alpha Competitor Assay, Red (ThermoFisher, A15884) was used to determine if the X compounds bind to ERα. The assay was performed according to the manufacturer’s protocol.

[1] = read-out: IC50 clonal expansion, Figure 1B, MCF-7 luc D538G, absence of E2, 14 days
[2] = read-out: IC50 clonal expansion, Figure 1C, MCF-7 luc D538G + 10 nM E2, 14 days

Compound	ERα destabilization (immunoblot) (ERα in MCF-7 cells)	AHR transcriptional activity (reporter), in words (AHR)	EC50 (AHR) [nM]	IC50 (MCF-7 luc D538G; [1]) [nM]	IC50 (MCF-7 luc D538G; [2]) [nM]	IC50 (MCF-7 luc D538G; read-out: IC50 clonal expansion, Figure 1D, MCF-7 luc D538G, absence of E2, 14 days) [nM]	IC50 (MCF-7 luc D538G; read-out: IC50 clonal expansion, Figure 1E, MCF-7 luc D538G + 10 nM E2, 14 days) [nM]	displacement of the Fluormone tracer from ERα (ERα full-length)
Fc1ccc(-c2cn3cc(C(F)(F)F)cc(Cl)c3n2)cc1 [X15695]	most proficient in destabilizing ERα	potency that surpassed that of the classical AHR ligand dioxin	0.14	11.4	5.34	11.4	5.34	did not
Cc1cc(Cl)c2nc(-c3ccc(F)cc3)cn2c1 [X19724]	most proficient in destabilizing ERα	only modest enhancement	1.37	324	31.6	–	–	did not
Cc1cc(Cl)c2nc(-c3ccccc3)cn2c1 [X19728]	no significant ERα destabilization	only modest enhancement	3.94	74.4	48	–	–	did not
